Article PMC10967427, “Polylactic Glycolic Acid-Mediated Delivery of Plectasin Derivative NZ2114 in Staphylococcus epidermidis Biofilms” (Antibiotics, 2024)

Tested on: S. epidermidis G4 biofilm persister
Assay: Effect on biofilm persisters, colony counting
Assay type: cell-based, Staphylococcus epidermidis
Settings: vancomycin 100× MIC, 24 h, induction of persisters
Description: The antibacterial effect of NZ2114 nanoparticles on the persistent bacteria in the biofilm was determined according to the previous study.

With `CN[C@H](CC(C)C)C(=O)N[C@H]1C(=O)N[C@@H](CC(N)=O)C(=O)N[C@H]2C(=O)N[C@H]3C(=O)N[C@H](C(=O)N[C@H](C(=O)O)c4cc(O)cc(O)c4-c4cc3ccc4O)[C@H](O)c3ccc(c(Cl)c3)Oc3cc2cc(c3O[C@@H]2O[C@H](CO)[C@@H](O)[C@H](O)[C@H]2O[C@H]2C[C@](C)(N)[C@H](O)[C@H](C)O2)Oc2ccc(cc2Cl)[C@H]1O` [vancomycin] the “Number of viable bacteria in the biofilm after vancomycin” value was 5.3 × 10^6 CFU/mL.
